According to US20160297830A1, “NOVEL COMPOUNDS USEFUL FOR THE TREATMENT OF BACTERIAL INFECTIOUS DISEASES” (GALAPAGOS NV, priority 2013, published 2016):
Converted amounts (≈) assume the structure as drawn. Where two headings read alike, the source gives them in different places.

What was measured:
[1] = test system: E. coli Ec113 efflux pump KO; assay: microbe, parasite or virus in culture; assay type: cell-based; conditions: Escherichia coli, read-out: MIC Ec113 efflux pump KO
[2] = test system: H. influenza Hi10 clinical strain; assay: organism not typed; assay type: cell-based; conditions: read-out: MIC Hi10
[3] = test system: H. influenza Hi47 clinical strain, Ampicillin Resistant; assay: organism not typed; assay type: cell-based; conditions: read-out: MIC Hi47
[4] = test system: H. influenza Hi106 ATCC 51907; assay: organism not typed; assay type: cell-based; conditions: read-out: MIC Hi106
S. aureus Sa4 NCTC 6571 = assay: Antibacterial activity assay (MIC), S. aureus Sa4; assay type: cell-based; conditions: Staphylococcus aureus, NCTC6571, read-out: MIC Sa4
[5] = test system: E. coli Ec50 efflux pump KO; assay: microbe, parasite or virus in culture; assay type: cell-based; conditions: Escherichia coli, read-out: MIC Ec50 efflux pump KO
[6] = test system: Methicillin Resistant S. aureus Sa2 (MRSA); assay type: in vivo; conditions: Groin Sa, Study 1, sample time 31 h post infection
[7] = test system: H. influenza Hi3 ATCC 31517; assay: organism not typed; assay type: cell-based; conditions: read-out: MIC Hi3
[8] = test system: S. aureus Sa26 ATCC 25923; assay: Antibacterial activity assay (MIC), S. aureus Sa26; assay type: cell-based; conditions: Staphylococcus aureus
[9] = molecular target: DNA Polymerase IIIα (DnaE) from Staphylococcus aureus (Staphylococcus aureus, UniProt Q6GG04); assay: biochemical
Sequence of DNA Polymerase IIIα (DnaE) from Staphylococcus aureus (Q6GG04 1-1022): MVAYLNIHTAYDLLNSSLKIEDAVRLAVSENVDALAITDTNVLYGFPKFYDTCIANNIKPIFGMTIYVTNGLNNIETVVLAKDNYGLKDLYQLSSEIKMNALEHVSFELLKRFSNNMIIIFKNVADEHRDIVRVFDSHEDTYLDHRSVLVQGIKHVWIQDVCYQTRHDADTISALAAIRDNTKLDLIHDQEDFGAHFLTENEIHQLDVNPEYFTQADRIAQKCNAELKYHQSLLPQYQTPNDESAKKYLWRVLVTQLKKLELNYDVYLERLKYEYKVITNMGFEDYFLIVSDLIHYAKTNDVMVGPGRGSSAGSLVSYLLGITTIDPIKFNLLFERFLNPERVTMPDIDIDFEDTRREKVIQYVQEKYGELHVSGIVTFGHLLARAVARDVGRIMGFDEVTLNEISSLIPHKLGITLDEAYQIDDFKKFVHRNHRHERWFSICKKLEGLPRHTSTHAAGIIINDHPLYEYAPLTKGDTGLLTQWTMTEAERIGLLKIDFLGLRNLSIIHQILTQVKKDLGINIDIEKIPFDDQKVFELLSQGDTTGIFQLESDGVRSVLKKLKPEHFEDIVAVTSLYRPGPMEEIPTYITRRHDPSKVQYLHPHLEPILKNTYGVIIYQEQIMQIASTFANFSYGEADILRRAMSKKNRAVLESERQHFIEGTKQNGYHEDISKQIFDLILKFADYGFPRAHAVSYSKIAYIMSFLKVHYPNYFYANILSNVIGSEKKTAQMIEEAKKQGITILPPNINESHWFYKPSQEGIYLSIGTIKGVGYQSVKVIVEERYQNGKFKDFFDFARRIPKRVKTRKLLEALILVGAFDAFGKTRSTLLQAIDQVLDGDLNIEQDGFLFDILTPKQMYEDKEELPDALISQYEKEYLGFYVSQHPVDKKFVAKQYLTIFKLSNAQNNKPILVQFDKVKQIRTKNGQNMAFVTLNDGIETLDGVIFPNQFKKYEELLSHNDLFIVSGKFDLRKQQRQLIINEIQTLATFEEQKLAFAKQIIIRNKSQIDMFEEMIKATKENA

DNA III Polymerase E = DNA III Polymerase E (Escherichia coli, UniProt P10443); assay: In vitro activity against DNA III Polymerase E, E. coli; assay type: biochemical; conditions: DNA polymerase III, E. coli; read-out: IC50 semiquantitative scoring, E. coli
Sequence of DNA III Polymerase E (P10443 whole entry): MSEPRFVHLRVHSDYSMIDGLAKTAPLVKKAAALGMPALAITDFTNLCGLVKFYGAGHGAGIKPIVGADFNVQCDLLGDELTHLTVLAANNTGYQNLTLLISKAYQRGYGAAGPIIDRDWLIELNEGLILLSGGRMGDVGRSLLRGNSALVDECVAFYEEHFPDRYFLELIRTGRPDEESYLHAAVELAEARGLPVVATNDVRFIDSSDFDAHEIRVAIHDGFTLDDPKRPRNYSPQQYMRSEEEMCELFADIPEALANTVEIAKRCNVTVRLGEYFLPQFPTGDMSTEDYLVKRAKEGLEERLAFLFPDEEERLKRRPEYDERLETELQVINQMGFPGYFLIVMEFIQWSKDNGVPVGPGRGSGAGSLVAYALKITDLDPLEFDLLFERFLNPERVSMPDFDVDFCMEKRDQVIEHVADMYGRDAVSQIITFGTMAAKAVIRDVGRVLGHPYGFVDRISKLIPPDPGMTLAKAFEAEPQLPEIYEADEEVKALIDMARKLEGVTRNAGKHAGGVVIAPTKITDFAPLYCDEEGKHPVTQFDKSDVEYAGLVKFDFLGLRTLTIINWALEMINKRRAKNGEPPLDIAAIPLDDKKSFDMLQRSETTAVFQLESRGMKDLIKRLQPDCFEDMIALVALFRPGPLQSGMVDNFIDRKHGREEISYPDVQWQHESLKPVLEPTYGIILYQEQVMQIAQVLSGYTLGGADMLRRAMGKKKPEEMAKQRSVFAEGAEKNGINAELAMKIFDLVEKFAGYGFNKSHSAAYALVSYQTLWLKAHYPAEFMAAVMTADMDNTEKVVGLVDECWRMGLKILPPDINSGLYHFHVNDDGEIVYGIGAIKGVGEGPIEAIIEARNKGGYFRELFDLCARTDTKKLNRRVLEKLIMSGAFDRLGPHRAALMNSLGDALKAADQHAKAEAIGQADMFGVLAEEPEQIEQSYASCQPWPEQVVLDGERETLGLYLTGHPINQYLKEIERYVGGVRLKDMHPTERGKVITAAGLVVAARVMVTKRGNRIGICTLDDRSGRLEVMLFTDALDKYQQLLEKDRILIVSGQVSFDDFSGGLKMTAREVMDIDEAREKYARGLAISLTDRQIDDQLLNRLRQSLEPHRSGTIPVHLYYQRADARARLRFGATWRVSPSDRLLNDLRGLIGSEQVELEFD
Outline: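 Recombinant enzyme (0.47 μg/mL diluted stock) in 20 mM Tris pH7.5, 8 mM DTT, 10 mM MgOAc, 0.05% CHAPS met compound series from 100 μM top, 1/5 steps. Activated calf thymus DNA, dNTPs and [α-33P]-dTTP substrate were added, and incubation ran 120 min at 30° C. IC50 came from filter-captured incorporated radioactivity versus controls.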

[10] = test system: Methicillin Resistant S. aureus Sa2 (MRSA); assay: animal or person; assay type: in vivo; conditions: sample 24 h post infection, lung; for Active: Study 4
[11] = test system: Methicillin Resistant S. aureus (MRSA); assay: Neutropenic mouse thigh infection model; conditions: Thigh Sa
S. aureus Sa1 ATCC 13709 = assay: microbe, parasite or virus in culture; assay type: cell-based; conditions: Staphylococcus aureus, ATCC13709, read-out: MIC Sa1
[12] = test system: S. aureus Sa2 clinical strain NCIMB 41953, MRSA; assay: microbe, parasite or virus in culture; assay type: cell-based; conditions: Staphylococcus aureus, read-out: MIC Sa2
E. coli Ec1 ATCC 25922 = assay: Antibacterial activity assay (MIC), E. coli Ec1; assay type: cell-based; conditions: Escherichia coli, ATCC25922, read-out: MIC Ec1
[13] = Study 3, 50 mg/kg SC BID, sample time 7 h PI
[14] = Study 5, 5 mg/kg IP BID, sample time 24 h PI
[15] = Study 5, 15 mg/kg IP BID, sample time 24 h PI
[16] = Study 5, 50 mg/kg IP BID, sample time 24 h PI
[17] = Study 5, 50 mg/kg SC BID, sample time 24 h PI
[18] = Study 5, 200 mg/kg PO BID, sample time 24 h PI
[19] = Study 6, 50 mg/kg PO BID, sample time 24 h PI
[20] = Study 6, 100 mg/kg PO BID, sample time 24 h PI

**Q.** What does the source list for `CO[C@H]1C[C@H]2C=C[C@H]3[C@H]4O[C@]2(/C(C)=C/[C@@H](C)[C@@H]([C@@H](C)O)OC1=O)[C@@H]3[C@H](O)[C@@H](C)[C@H]4OC(=O)c1ccc[nH]1` [Nargenicin A1, reference compound]?
**A.** MIC [1]: ≤ 0.06 µg/mL; MIC [2]: 32 µg/mL (≈ 62.1 µM); MIC [3]: 64 µg/mL (≈ 124 µM); MIC [4]: 32 µg/mL (≈ 62.1 µM); MIC (S. aureus Sa4 NCTC 6571): ≤ 0.06 µg/mL; MIC [5]: 2 µg/mL (≈ 3.88 µM); Active ([6]; 50 mg/kg IP BID): Y; Log reduction vs. untreated ([6]; 50 mg/kg IP BID): −3.13; Active ([6]; 50 mg/kg PO BID): N; Log reduction vs. untreated ([6]; 50 mg/kg PO BID): −1.11; MIC [7]: 64 µg/mL (≈ 124 µM); MIC ([8]; ATCC25923, read-out: MIC Sa26): 0.25 µg/mL (≈ 0.485 µM); MIC ([8]; ATCC25923, read-out: MIC Sa26 + 10% SH): 0.5 µg/mL; MIC ([8]; ATCC25923, read-out: MIC Sa26 + 50% SH): 0.5 µg/mL; IC50 [9]: 1.94 to 1940 nM; IC50 (DNA III Polymerase E): 1.94 to 1940 nM; log reduction at 12.5 mg/kg ([10]; Staphylococcus aureus, MRSA, in Mus musculus, po, 24 h, read-out: Log reduction vs. untreated, Study 4, 12.5 mg/kg PO BID): 0.39; log reduction at 25 mg/kg ([10]; Staphylococcus aureus, MRSA, in Mus musculus, po, 24 h, read-out: Log reduction vs. untreated, Study 4, 25 mg/kg PO BID): 2.17; log reduction at 50 mg/kg ([10]; Staphylococcus aureus, MRSA, in Mus musculus, po, 24 h, read-out: Log reduction vs. untreated, Study 4, 50 mg/kg PO BID): 2.57; Active ([10]; 12.5 mg/kg PO BID): N; Active ([10]; 25 mg/kg PO BID): Y; Active ([10]; 50 mg/kg PO BID): Y; Active [11, 13]: Y; Log reduction vs. untreated [11, 13]: −4.52; Active [11, 14]: N; Log reduction vs. untreated [11, 14]: 0.28; Active [11, 15]: N; Log reduction vs. untreated [11, 15]: −0.55; Active [11, 16]: Y; Log reduction vs. untreated [11, 16]: −5.40; Active [11, 17]: Y; Log reduction vs. untreated [11, 17]: −3.28; Active [11, 18]: Y; Log reduction vs. untreated [11, 18]: −4.47; Active [11, 19]: Y; Log reduction vs. untreated [11, 19]: −2.02; Active [11, 20]: Y; Log reduction vs. untreated [11, 20]: −4.06; MIC (S. aureus Sa1 ATCC 13709): 0.125 µg/mL (≈ 0.242 µM); MIC [12]: 0.125 µg/mL (≈ 0.242 µM); MIC (E. coli Ec1 ATCC 25922): > 64 µg/mL
